Reference: patent US20220202824A1, “Methods for Treating Centronuclear Myopathy” (Stemline Therapeutics, Inc., priority 2018, published 2022)
Read-outs that look alike come from different tables or passages of the source. One block for each compound: values may come before it.

Assays:
[1] = biological target: PIK3C2B (Homo sapiens, UniProt O00750); details: cited from earlier work; for IC50: read-out: IC50 for PIK3C2B
[2] = biological target: PI3Kβ (Homo sapiens, UniProt P42338); details: literature value; read-out: IC50 for other PI3Ks: PI3Kβ; cited from earlier work
[3] = tested on: 395 kinases; assay: KINOMEscan competitive binding profiling assay of 395 kinases (Ambit Biosciences); details: single concentration 10 μM
Source text: Initially, 3-{[(3S)-4-(6,6-dimethyl-4-oxo-4,5,6,7-tetrahydro[1,3]thiazolo[5,4-c]pyridin-2-yl)morpholin-3-yl]methyl}-N,N,1-trimethyl-1H-indole-5-carboxamide (referred as Test Compound here in Example 2) was screened against kinase targets representing diverse protein kinase family members for competitive binding using a commercially available profiling assay of 395 kinases (Ambit Biosciences, KINOMEscan), and the compound was found most likely to inhibit the kinase activity of PI3Ks compared to other kinases.

[4] = biological target: PIK3C2A (PI3K-C2 alpha) (Homo sapiens, UniProt O00443); assay: SelectScreen Adapta universal kinase assay, PIK3C2A; format: biochemical; details: [ATP] 10 uM; for inhibition at 0.00101 µM / inhibition at 0.00303 µM / inhibition at 0.0091 µM / inhibition at 0.0273 µM / inhibition at 0.082 µM / inhibition at 0.247 µM / inhibition at 0.741 µM / inhibition at 2.222 µM / inhibition at 6.667 µM / inhibition at 20 µM: PIK3C2A; for inhibition at 0.00101 µM: Test Compound 1.01 nM; for inhibition at 0.00303 µM: Test Compound 3.03 nM; for inhibition at 0.0091 µM: Test Compound 9.1 nM; for inhibition at 0.0273 µM: Test Compound 27.3 nM; for inhibition at 0.082 µM: Test Compound 82 nM; for inhibition at 0.247 µM: Test Compound 247 nM; for inhibition at 0.741 µM: Test Compound 741 nM; for inhibition at 2.222 µM: Test Compound 2222 nM; for inhibition at 6.667 µM: Test Compound 6667 nM; for inhibition at 20 µM: Test Compound 20000 nM
Method: (§1) Kinase activities of PIK3C2B (and PIK3C2A for comparison) were obtained using the SelectScreen™ Profiling Service (Invitrogen) based on Adapta™ universal kinase assay protocol and conditions (Invitrogen Corporation, Cat. No. PV5099).
(§2) Adapta™ universal kinase assay: The assay itself can be divided into two phases: a kinase reaction phase, and an ADP detection phase. In the kinase reaction phase, all components required for the kinase reaction are added to the well, and the reaction is allowed to incubate for 60 minutes. After the reaction, a detection solution consisting of a europium labeled anti-ADP antibody, an Alexa Fluor™ 647 labeled ADP tracer, and EDTA (to stop the kinase reaction) is added to the assay well. ADP formed by the kinase reaction (in the absence of an inhibitor) displaces the Alexa Fluor® 647 labeled ADP tracer from the antibody, resulting in a decrease in the TR-FRET signal. In the presence of an inhibitor, the amount of ADP formed by the kinase reaction is reduced, and the resulting intact antibody-tracer interaction results in a high TR-FRET signal. ADP formation is determined by calculating the emission ratio from the assay well.
(§3) The emission ratio is calculated by dividing the intensity of the tracer (acceptor) emission by the intensity of the Eu (donor) emission at 615 nm as shown in the equation below. Emission Ratio=AlexaFluor™647 Emission (665 nm)/Europium Emission (615 nm).
(§4) The Test Compound was screened in 1% DMSO (final solution). For 10-point titrations, 3-fold serial dilutions were conducted from the starting concentrations of 20,000 nM for PIK3C2A and 1,000 nM for PIK3C2B.
(§5) For PIK3C2A (PI3K-C2 alpha), the 2×PIK3C2A (PI3K-C2 alpha)/PI mixture was prepared in a Kinase Buffer including 00 mM HEPES pH 7.5, 200 mM NaCl, 0.06% CHAPS, 6 mM MgCl2, 2 mM EGTA. The final 10 μL Kinase Reaction has 8 ng PIK3C2A (PI3K-C2 alpha) and 100 μM PI in 57.5 mM HEPES pH 7.5, 100 mM NaCl, 0.03% CHAPS, 3 mM MgCl2, 1 mM EGTA. After the 1 hour Kinase Reaction incubation, 5 μL of Detection Mix was added.
(§6) All ATP Solutions were diluted to a 4× working concentration in water. ATP Km (apparent) was previously determined using a radiometric assay except when no substrate is available in which case an Adapta™ assay was conducted.
(§7) The Detection Mix was prepared in TR-FRET Dilution Buffer. The Detection mix consists of EDTA (30 mM), Eu-anti-ADP antibody (30 nM) and ADP tracer. The detection mix contains the EC60 concentration of tracer for 5-100 μM ATP.
(§8) Adapta™ assay protocol: 2.5 μL 4× Test Compound or 100 nL 100× plus 2.4 μL kinase buffer was dispensed onto white 384-well small volume polystyrene plate (Corning, Cat. No. 3674). Then 2.5 μL of 4×ATP Solution followed by 5 μL of 2× Substrate/Kinase Mixture were added. The final 10 μL Kinase Reaction has 8 ng PIK3C2B (PI3K-C2 beta) and 100 μM PI in 57.5 mM HEPES pH 7.5, 100 mM NaCl, 0.03% CHAPS, 3 mM MgCl2, 1 mM EGTA After 30 seconds plate shake and 2-minutes centrifugation at 1000×g for 2 minutes, Kinase Reaction incubation was performed at room temperature for 60 minutes.
(§9) After the Kinase Reaction incubation, 5 μL of Detection Mix was added. After 30 seconds plate shake and 2-minutes centrifugation at 1000×g for 2 minutes, Detection Mix equilibration incubation was performed at room temperature for 60 minutes.
(§10) Adapta™ data analysis: The fluorescent data obtained was analyzed using a data fitting program, XLfit (ID Business Solutions, Guildford, UK). IC50 values were derived by fitting a sigmoidal dose-response curve to a plot of assay readout over inhibitor concentration.

[5] = biological target: PIK3C2B (PI3K-C2 beta) (Homo sapiens, UniProt O00750); assay: SelectScreen Adapta universal kinase assay, PIK3C2B; format: biochemical; details: for inhibition at 51 pM / inhibition at 0.000153 µM / inhibition at 0.00046 µM / inhibition at 0.00137 µM / inhibition at 0.0041 µM / inhibition at 0.0123 µM / inhibition at 0.037 µM / inhibition at 0.111 µM / inhibition at 0.333 µM / inhibition at 1 µM: PIK3C2B; for inhibition at 51 pM: Test Compound 0.051 nM; for inhibition at 0.000153 µM: Test Compound 0.153 nM; for inhibition at 0.00046 µM: Test Compound 0.46 nM; for inhibition at 0.00137 µM: Test Compound 1.37 nM; for inhibition at 0.0041 µM: Test Compound 4.1 nM; for inhibition at 0.0123 µM: Test Compound 12.3 nM; for inhibition at 0.037 µM: Test Compound 37 nM; for inhibition at 0.111 µM: Test Compound 111 nM; for inhibition at 0.333 µM: Test Compound 333 nM; for inhibition at 1 µM: Test Compound 1000 nM
Method: as §1, §2, §3, §4
as §5, with “PIK3C2B” for “PIK3C2A”, “beta),” for “alpha),”, “2×PIK3C2B” for “2×PIK3C2A”, “beta)/PI” for “alpha)/PI”, “100” for “a Kinase Buffer including 00”, “beta)” for “alpha)”
as §6, §7, §8, §9, §10

[6] = [ATP] 10 uM, read-out: % Inhibition point 1
[7] = [ATP] 10 uM, read-out: % Inhibition point 2

PIK3C2B (PI3K-C2 beta), sequence (O00750 whole entry): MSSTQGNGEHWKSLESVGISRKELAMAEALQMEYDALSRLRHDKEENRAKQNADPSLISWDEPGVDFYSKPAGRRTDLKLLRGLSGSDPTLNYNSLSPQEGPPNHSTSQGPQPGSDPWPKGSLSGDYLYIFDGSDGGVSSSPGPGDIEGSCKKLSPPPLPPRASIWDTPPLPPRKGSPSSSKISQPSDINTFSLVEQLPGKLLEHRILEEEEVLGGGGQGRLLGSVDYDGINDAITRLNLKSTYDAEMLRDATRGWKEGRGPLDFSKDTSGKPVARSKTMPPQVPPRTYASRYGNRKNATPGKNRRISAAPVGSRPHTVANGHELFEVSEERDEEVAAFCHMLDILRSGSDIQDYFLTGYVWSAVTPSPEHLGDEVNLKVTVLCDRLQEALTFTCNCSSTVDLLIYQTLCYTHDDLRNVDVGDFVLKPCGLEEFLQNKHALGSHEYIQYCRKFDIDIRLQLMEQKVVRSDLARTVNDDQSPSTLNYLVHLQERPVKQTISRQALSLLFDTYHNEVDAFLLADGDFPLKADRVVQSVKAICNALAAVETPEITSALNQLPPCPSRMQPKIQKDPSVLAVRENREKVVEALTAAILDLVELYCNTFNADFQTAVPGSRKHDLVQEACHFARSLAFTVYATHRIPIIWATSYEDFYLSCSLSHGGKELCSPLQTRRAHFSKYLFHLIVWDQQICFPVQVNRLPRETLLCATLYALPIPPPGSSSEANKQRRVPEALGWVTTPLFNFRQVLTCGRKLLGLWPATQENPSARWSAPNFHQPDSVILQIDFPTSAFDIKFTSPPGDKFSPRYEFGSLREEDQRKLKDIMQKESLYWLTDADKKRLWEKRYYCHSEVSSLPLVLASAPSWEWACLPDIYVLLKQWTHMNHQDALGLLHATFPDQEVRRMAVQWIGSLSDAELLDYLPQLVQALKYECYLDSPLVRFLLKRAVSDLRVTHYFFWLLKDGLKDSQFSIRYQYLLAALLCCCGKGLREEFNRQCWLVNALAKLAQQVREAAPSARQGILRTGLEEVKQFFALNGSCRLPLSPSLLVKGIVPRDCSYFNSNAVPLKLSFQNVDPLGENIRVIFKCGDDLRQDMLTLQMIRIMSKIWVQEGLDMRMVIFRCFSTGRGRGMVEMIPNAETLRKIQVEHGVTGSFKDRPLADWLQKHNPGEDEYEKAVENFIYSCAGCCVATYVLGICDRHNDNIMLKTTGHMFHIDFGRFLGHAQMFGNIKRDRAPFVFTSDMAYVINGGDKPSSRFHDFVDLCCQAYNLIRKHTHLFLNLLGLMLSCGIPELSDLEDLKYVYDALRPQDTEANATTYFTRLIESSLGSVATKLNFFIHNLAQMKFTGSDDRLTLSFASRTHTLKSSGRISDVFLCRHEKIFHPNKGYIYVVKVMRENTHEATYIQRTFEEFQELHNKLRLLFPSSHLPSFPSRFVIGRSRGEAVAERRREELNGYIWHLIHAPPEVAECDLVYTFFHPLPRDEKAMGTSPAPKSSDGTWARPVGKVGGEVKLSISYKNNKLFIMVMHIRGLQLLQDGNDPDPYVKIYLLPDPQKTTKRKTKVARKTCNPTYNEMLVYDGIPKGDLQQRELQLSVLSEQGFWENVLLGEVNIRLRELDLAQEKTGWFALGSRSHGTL
PIK3C2B, sequence (O00750 whole entry): as above
PIK3C2A (PI3K-C2 alpha), sequence (O00443 whole entry): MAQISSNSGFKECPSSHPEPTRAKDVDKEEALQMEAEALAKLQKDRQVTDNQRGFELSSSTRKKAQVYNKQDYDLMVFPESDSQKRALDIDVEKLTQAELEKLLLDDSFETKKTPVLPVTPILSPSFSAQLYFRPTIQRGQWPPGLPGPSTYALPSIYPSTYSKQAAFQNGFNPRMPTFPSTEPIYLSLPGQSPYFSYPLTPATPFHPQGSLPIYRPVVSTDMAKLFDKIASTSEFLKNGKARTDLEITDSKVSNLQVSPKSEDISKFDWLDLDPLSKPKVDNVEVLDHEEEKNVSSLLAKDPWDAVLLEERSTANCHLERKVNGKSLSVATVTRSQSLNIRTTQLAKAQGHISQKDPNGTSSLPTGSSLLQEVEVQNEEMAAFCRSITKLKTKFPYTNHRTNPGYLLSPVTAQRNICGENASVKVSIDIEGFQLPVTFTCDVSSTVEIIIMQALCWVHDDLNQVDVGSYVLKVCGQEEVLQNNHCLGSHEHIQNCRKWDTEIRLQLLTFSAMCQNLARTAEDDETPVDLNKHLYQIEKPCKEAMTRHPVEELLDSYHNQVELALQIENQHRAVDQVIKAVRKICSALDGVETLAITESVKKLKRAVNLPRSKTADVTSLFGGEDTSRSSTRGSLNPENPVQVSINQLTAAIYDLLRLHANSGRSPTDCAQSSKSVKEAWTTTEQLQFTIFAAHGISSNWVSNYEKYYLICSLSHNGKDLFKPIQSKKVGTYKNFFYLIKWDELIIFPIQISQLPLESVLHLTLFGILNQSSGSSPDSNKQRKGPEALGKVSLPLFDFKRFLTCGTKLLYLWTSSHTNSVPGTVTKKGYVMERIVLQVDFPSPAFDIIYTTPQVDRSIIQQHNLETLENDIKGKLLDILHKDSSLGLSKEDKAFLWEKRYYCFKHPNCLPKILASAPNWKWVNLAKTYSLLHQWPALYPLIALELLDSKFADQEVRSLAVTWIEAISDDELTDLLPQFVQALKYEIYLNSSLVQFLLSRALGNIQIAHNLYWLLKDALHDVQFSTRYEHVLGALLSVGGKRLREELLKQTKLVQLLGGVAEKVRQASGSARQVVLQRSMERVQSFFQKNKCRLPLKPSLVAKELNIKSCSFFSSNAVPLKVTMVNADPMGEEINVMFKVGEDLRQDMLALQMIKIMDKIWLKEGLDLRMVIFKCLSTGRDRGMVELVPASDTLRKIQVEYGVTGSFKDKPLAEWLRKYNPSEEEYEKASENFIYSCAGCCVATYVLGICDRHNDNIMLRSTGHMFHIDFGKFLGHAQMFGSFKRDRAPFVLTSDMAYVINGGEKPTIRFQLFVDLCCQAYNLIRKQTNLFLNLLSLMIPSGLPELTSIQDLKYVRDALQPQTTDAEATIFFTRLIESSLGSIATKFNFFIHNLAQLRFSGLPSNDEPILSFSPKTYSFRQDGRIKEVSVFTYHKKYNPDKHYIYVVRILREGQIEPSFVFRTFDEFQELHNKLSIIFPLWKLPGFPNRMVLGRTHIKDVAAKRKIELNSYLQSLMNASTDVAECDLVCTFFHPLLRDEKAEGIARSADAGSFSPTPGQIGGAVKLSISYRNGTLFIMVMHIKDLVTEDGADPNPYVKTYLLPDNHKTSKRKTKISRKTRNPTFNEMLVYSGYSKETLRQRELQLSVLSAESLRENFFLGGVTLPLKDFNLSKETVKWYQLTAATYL

Structure (SMILES): CC[C@H](Nc1ncnc2[nH]cnc12)c1nc2cccc(F)c2c(=O)n1-c1ccccc1
IC50 [1]: 1000 nM

Structure (SMILES): Cc1c(Cn2c(C)nc(=O)c3sc(N4CCOCC4)nc32)cccc1C(F)(F)F
selectivity in favor of PI3Kβ (Class I) ([1]; PI3Kβ over PIK3C2B): 166-fold selectivity in favor of PI3Kβ (Class I) (Lin et al. ACS Med. Chem. Lett. 2012, 3, 524-529)
IC50 ([1]; literature value): 1000 nM
IC50 [2]: 6 nM

hits in kinase binding screen [3]: no hits other than PI3Ks
inhibition at 0.00101 µM ([4]; read-out: % Inhibition point 1): 25%
inhibition at 0.00101 µM ([4]; read-out: % Inhibition point 2): -12%
inhibition at 0.00303 µM ([4]; read-out: % Inhibition point 1): -24%
inhibition at 0.00303 µM ([4]; read-out: % Inhibition point 2): 3%
inhibition at 0.0091 µM ([4]; read-out: % Inhibition point 1): -3%
inhibition at 0.0091 µM ([4]; read-out: % Inhibition point 2): 16%
inhibition at 0.0273 µM ([4]; read-out: % Inhibition point 1): 13%
inhibition at 0.0273 µM ([4]; read-out: % Inhibition point 2): -4%
inhibition at 0.082 µM ([4]; read-out: % Inhibition point 1): 0%
inhibition at 0.082 µM ([4]; read-out: % Inhibition point 2): 11%
inhibition at 0.247 µM ([4]; read-out: % Inhibition point 1): 15%
inhibition at 0.247 µM ([4]; read-out: % Inhibition point 2): 6%
inhibition at 0.741 µM ([4]; read-out: % Inhibition point 1): 17%
inhibition at 0.741 µM ([4]; read-out: % Inhibition point 2): 30%
inhibition at 2.222 µM ([4]; read-out: % Inhibition point 1): 46%
inhibition at 2.222 µM ([4]; read-out: % Inhibition point 2): 36%
inhibition at 6.667 µM ([4]; read-out: % Inhibition point 1): 55%
inhibition at 6.667 µM ([4]; read-out: % Inhibition point 2): 46%
inhibition at 20 µM ([4]; read-out: % Inhibition point 1): 81%
inhibition at 20 µM ([4]; read-out: % Inhibition point 2): 78%
IC50 [4]: 4300 nM
selectivity over C2A (Class II isoform) ([5]; PIK3C2B vs PIK3C2A IC50): 449-fold selectivity over
inhibition at 51 pM [5, 6]: 16%
inhibition at 51 pM [5, 7]: 17%
inhibition at 0.000153 µM [5, 6]: -3%
inhibition at 0.000153 µM [5, 7]: 8%
inhibition at 0.00046 µM [5, 6]: 10%
inhibition at 0.00046 µM [5, 7]: 21%
inhibition at 0.00137 µM [5, 6]: 21%
inhibition at 0.00137 µM [5, 7]: 33%
inhibition at 0.0041 µM [5, 6]: 58%
inhibition at 0.0041 µM [5, 7]: 27%
inhibition at 0.0123 µM [5, 6]: 61%
inhibition at 0.0123 µM [5, 7]: 49%
inhibition at 0.037 µM [5, 6]: 74%
inhibition at 0.037 µM [5, 7]: 82%
inhibition at 0.111 µM [5, 6]: 92%
inhibition at 0.111 µM [5, 7]: 90%
inhibition at 0.333 µM [5, 6]: 94%
inhibition at 0.333 µM [5, 7]: 93%
inhibition at 1 µM [5, 6]: 93%
inhibition at 1 µM [5, 7]: 95%
IC50 ([5]; [ATP] 10 uM): 9.57 nM
Structure (SMILES): CN(C)C(=O)c1ccc2c(c1)c(C[C@H]1COCCN1c1nc3c(s1)C(=O)NC(C)(C)C3)cn2C [Test Compound, 3-{[(3S)-4-(6,6-dimethyl-4-oxo-4,5,6,7-tetrahydro[1,3]thiazolo[5,4-c]pyridin-2-yl)morpholin-3-yl]methyl}-N,N,1-trimethyl-1H-indole-5-carboxamide]
